Where only a bound is given, the exact number is not on record here.

The test concerns RKO p21 uninduced (proliferating) colon adenocarcinoma cells. The experiment in a line: Alamar Blue cell viability assay, RKO p21 uninduced (proliferating). It is filed as cell-based. To be noted: Homo sapiens, Table B3, anti-proliferative/cytotoxic activity, 72 hours, read-out: −log EC50 RKO p21 uninduced (proliferating) (converted). The method, boiled down:
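Viability read by Alamar Blue fluorescence (ex 544, em 590 nm), normalised to untreated wells, after 72 h, 37° C, 5% CO2 compound exposure in triplicate. Cells were uninduced (no Ponasterone A), proliferating RKO colon carcinoma p27 or p21 subclones in DMEM with 10% FCS; values are −log EC50 (mol/l).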
In general terms: Resazurin is reduced to fluorescent resorufin, in cell work by metabolically active cells.
Regarding `C#CCN(C)CCCN1C(=O)N2[C@H](c3cccc(O)c3)c3[nH]c4ccc(Cl)cc4c3C[C@@]2(C)C1=O` (racemic) [Example 170, (3aSR,10RS)-6-Chloro-10-(3-hydroxy-phenyl)-3a-methyl-2-[3-(methyl-prop-2-ynyl-amino)-propyl]-3a,4,9,10-tetrahydro-2,9,10a-triaza-cyclopenta[b]fluorene-1,3-dione], the EC50 (commonly the concentration needed to bring the measured effect to its halfway point) is 39.8 to 251 nM. As for `COc1cc2c3c([nH]c2cc1F)[C@@H](c1cccc(O)c1)N1C(=O)N(CCN2CC=CC2)C(=O)[C@]1(C)C3` (racemic) [Example 262, (3aSR,10RS)-2-[2-(2,5-Dihydro-pyrrol-1-yl)-ethyl]-7-fluoro-10-(3-hydroxy-phenyl)-6-methoxy-3a-methyl-3a,4,9,10-tetrahydro-2,9,10a-triaza-cyclopenta[b]fluorene-1,3-dione], the EC50 was 39.8 to 251 nM. For the compound `CCN(CC)CCCN1C(=O)N2[C@H](c3cccc(O)c3)c3[nH]c4ccc(Br)cc4c3C[C@@]2(C)C1=O` (racemic) [Example 228, (3aSR,10RS)-6-Bromo-2-(3-diethylamino-propyl)-10-(3-hydroxy-phenyl)-3a-methyl-3a,4,9,10-tetrahydro-2,9,10a-triaza-cyclopenta[b]fluorene-1,3-dione], the concentration giving a half-maximal response (EC50) is at most 39.8 nM.

Consider `C[C@@]12Cc3c([nH]c4cc(F)c(Cl)cc34)[C@@H](c3cccc(O)c3)N1C(=O)N(CCN1CCCC1)C2=O` (racemic) [Example 354, (3aSR,10RS)-6-Chloro-7-fluoro-10-(3-hydroxy-phenyl)-3a-methyl-2-(2-pyrrolidin-1-yl-ethyl)-3a,4,9,10-tetrahydro-2,9,10a-triaza-cyclopenta[b]fluorene-1,3-dione], for which the half-maximal effective concentration (EC50) is at most 39.8 nM. The result for `CCN(CC)CCCN1C(=O)N2[C@H](c3cccc(O)c3)c3[nH]c4ccc(OC(F)F)cc4c3C[C@@]2(C)C1=O` (racemic) [Example 176, (3aSR,10RS)-2-(3-Diethylamino-propyl)-6-(1,1-difluoro-methoxy)-10-(3-hydroxy-phenyl)-3a-methyl-3a,4,9,10-tetrahydro-2,9,10a-triaza-cyclopenta[b]fluorene-1,3-dione] reads at most 39.8 nM; that for `CC(C)NCCN1C(=O)N2[C@H](c3cccc(O)c3)c3[nH]c4ccc(Br)cc4c3C[C@@]2(C)C1=O` (racemic) [Example 233, (3aSR,10RS)-6-Bromo-10-(3-hydroxy-phenyl)-2-(2-ispropylamino-ethyl)-3a-methyl-3a,4,9,10-tetrahydro-2,9,10a-triaza-cyclopenta[b]fluorene-1,3-dione], at most 39.8 nM. As for `COc1cc2c3c([nH]c2cc1F)[C@@H](c1cccc(O)c1)N1C(=O)N(CCCN2CC=CCC2)C(=O)[C@]1(C)C3` (racemic) [Example 326, (3aSR,10RS)-2-[3-(3,6-Dihydro-2H-pyridin-1-yl)-propyl]-7-fluoro-10-(3-hydroxy-phenyl)-6-methoxy-3a-methyl-3a,4,9,10-tetrahydro-2,9,10a-triaza-cyclopenta[b]fluorene-1,3-dione], the EC50 is 39.8 to 251 nM. `COc1ccc2[nH]c3c(c2c1)C[C@@]1(C)C(=O)N(CCCNCCO)C(=O)N1[C@@H]3c1cccc(O)c1` [Example 536, (3aS,10R)-2-[3-(2-Hydroxy-ethylamino)-propyl]-10-(3-hydroxy-phenyl)-6-methoxy-3a-methyl-3a,4,9,10-tetrahydro-2,9,10a-triaza-cyclopenta[b]fluorene-1,3-dione]: the EC50 is at most 39.8 nM. On to `COc1cc2c3c([nH]c2cc1F)[C@@H](c1cccc(O)c1)N1C(=O)N(CCNCC(C)C)C(=O)[C@]1(C)C3` (racemic) [Example 252, (3aSR,10RS)-7-Fluoro-10-(3-hydroxy-phenyl)-2-(2-isobutylamino-ethyl)-6-methoxy-3a-methyl-3a,4,9,10-tetrahydro-2,9,10-triaza-cyclopenta[b]fluorene-1,3-dione], for which the 50% effective concentration (EC50) was 39.8 to 251 nM. As for `CC(=O)N1CCN(CCCN2C(=O)N3[C@H](c4cccc(O)c4)c4[nH]c5ccc(OC(F)F)cc5c4C[C@@]3(C)C2=O)CC1` (racemic) [Example 241, (3aSR,10RS)-2-[3-(4-Acetyl-piperazin-1-yl)-propyl]-6-(1,1-difluoro-methoxy)-10-(3-hydroxy-phenyl)-3a-methyl-3a,4,9,10-tetrahydro-2,9,10a-triaza-cyclopenta[b]fluoroene-1,3-dione], the EC50 was 39.8 to 251 nM.

As for `C[C@@]12Cc3c([nH]c4ccc(Br)cc34)[C@@H](c3cccc(O)c3)N1C(=O)N(CCN1CC=CCC1)C2=O` (racemic) [Example 395, (3aSR,10RS)-6-Bromo-2-[2-(3,6-dihydro-2H-pyridin-1-yl)-ethyl]-10-(3-hydroxy-phenyl)-3a-methyl-3a,4,9,10-tetrahydro-2,9,10a-triaza-cyclopenta[b]fluorene-1,3-dione], the EC50 is 39.8 to 251 nM. Consider `C=CCNCCCN1C(=O)N2[C@H](c3cccc(O)c3)c3[nH]c4ccc(OC(F)F)cc4c3C[C@@]2(C)C1=O` (racemic) [Example 206, (3aSR,10RS)-2-(3-Allylamino-propyl)-6-(1,1-difluoro-methoxy)-10-(3-hydroxy-phenyl)-3a-methyl-3a,4,9,10-tetrahydro-2,9,10a-triaza-cyclopenta[b]fluorene-1,3-dione], for which the EC50 is 39.8 to 251 nM. The result for `C[C@@]12Cc3c([nH]c4ccc(Cl)cc34)[C@@H](c3cccc(O)c3)N1C(=O)N(CCCN1CCOCC1)C2=O` (racemic) [Example 171, (3aSR,10RS)-6-Chloro-10-(3-hydroxy-phenyl)-3a-methyl-2-(3-morpholin-4-yl-propyl)-3a,4,9,10-tetrahydro-2,9,10a-triaza-cyclopenta[b]fluorene-1,3-dione] reads at most 39.8 nM; that for `COc1cc2c3c([nH]c2cc1F)[C@@H](c1cccc(O)c1)N1C(=O)N(CCNCC2CC2)C(=O)[C@]1(C)C3` (racemic) [Example 251, (3aSR,10RS)-2-[2-(Cyclopropylmethyl-amino)-ethyl]-7-fluoro-10-(3-hydroxy-phenyl)-6-methoxy-3a-methyl-3a,4,9,10-tetrahydro-2,9,10a-triaza-cyclopenta[b]fluorene-1,3-dione], at most 39.8 nM. `COCCNCCCN1C(=O)N2[C@H](c3cccc(O)c3)c3[nH]c4ccc(OC)cc4c3C[C@@]2(C)C1=O` [Example 490, (3aS,10R)-10-(3-Hydroxy-phenyl)-6-methoxy-2-[3-(2-methoxy-ethylamino)-propyl]-3a-methyl-3a,4,9,10-tetrahydro-2,9,10a-triaza-cyclopenta[b]fluorene-1,3-dione]: the EC50 was at most 39.8 nM. In the case of `C[C@@]12Cc3c([nH]c4ccc(OC(F)F)cc34)[C@@H](c3cccc(O)c3)N1C(=O)N(CCN1CCOCC1)C2=O` (racemic) [Example 292, (3aSR,10RS)-6-(1,1-Difluoro-methoxy)-10-(3-hydroxy-phenyl)-3a-methyl-2-(2-morpholin-4-yl-ethyl)-3a,4,9,10-tetrahydro-2,9,10a-triaza-cyclopenta[b]fluorene-1,3-dione], the EC50 was 39.8 to 251 nM. Turning to `CC(C)CNCCCN1C(=O)N2[C@H](c3cccc(O)c3)c3[nH]c4ccc(Br)cc4c3C[C@@]2(C)C1=O` (racemic) [Example 213, (3aSR,10RS)-6-Bromo-10-(3-hydroxy-phenyl)-2-(3-isobutylamino-propyl)-3a-methyl-3a,4,9,10-tetrahydro-2,9,10a-triaza-cyclopenta[b]fluorene-1,3-dione], the half-maximal effective concentration (EC50) was at most 39.8 nM.

For the compound `COc1ccc2[nH]c3c(c2c1)C[C@@]1(C)C(=O)N(CCCN2CCN(C)CC2)C(=O)N1[C@@H]3c1cccc(O)c1` (racemic) [Example 150, (3aSR,10RS)-10-(3-Hydroxy-phenyl)-6-methoxy-3a-methyl-2-[3-(4-methyl-piperazin-1-yl)-propyl]-3a,4,9,10-tetrahydro-2,9,10a-triaza-cyclopenta[b]fluorene-1,3-dione], the EC50 was at most 39.8 nM. Regarding `CCOc1ccc2[nH]c3c(c2c1)C[C@@]1(C)C(=O)N(CCCNC2CC2)C(=O)N1[C@@H]3c1cccc(O)c1` (racemic) [Example 190, (3aSR,10RS)-2-(3-Cyclopropylamino-propyl)-6-ethoxy-10-(3-hydroxy-phenyl)-3a-methyl-3a,4,9,10-tetrahydro-2,9,10a-triaza-cyclopenta[b]fluorene-1,3-dione], the EC50 was 39.8 to 251 nM.

Regarding `COc1cc2c3c([nH]c2cc1F)[C@@H](c1cccc(O)c1)N1C(=O)N(CCN(C)C)C(=O)[C@]1(C)C3` (racemic) [Example 255, (3aSR,10RS)-2-(2-Dimethylamino-ethyl)-7-fluoro-10-(3-hydroxy-phenyl)-6-methoxy-3a-methyl-3a,4,9,10-tetrahydro-2,9,10a-triaza-cyclopenta[b]fluorene-1,3-dione], the 50% effective concentration (EC50) was 39.8 to 251 nM. Take `CCN(CCOC)CCN1C(=O)N2[C@H](c3cccc(O)c3)c3[nH]c4cc(F)c(Cl)cc4c3C[C@@]2(C)C1=O` (racemic) [Example 350, (3aSR,10RS)-6-Chloro-2-{2-[ethyl-(2-methoxy-ethyl)-amino]-ethyl}-7-fluoro-10-(3-hydroxy-phenyl)-3a-methyl-3a,4,9,10-tetrahydro-2,9,10a-triaza-cyclopenta[b]fluorene-1,3-dione]: the EC50 was 39.8 to 251 nM.

For `CCOc1ccc2[nH]c3c(c2c1)C[C@@]1(C)C(=O)N(CCCN2CCCC2)C(=O)N1[C@@H]3c1cccc(O)c1` (racemic) [Example 221, (3aSR,10RS)-6-Ethoxy-10-(3-hydroxy-phenyl)-3a-methyl-2-(3-pyrrolidin-1-yl-propyl)-3a,4,9,10-tetrahydro-2,9,10a-triaza-cyclopenta[b]fluorene-1,3-dione], the half-maximal effective concentration (EC50) is 39.8 to 251 nM. For `C#CCNCCCN1C(=O)N2[C@H](c3cccc(O)c3)c3[nH]c4cc(F)c(OC)cc4c3C[C@@]2(C)C1=O` (racemic) [Example 309, (3aSR,10RS)-7-Fluoro-10-(3-hydroxy-phenyl)-6-methoxy-3a-methyl-2-(3-prop-2-ynylamino-propyl)-3a,4,9,10-tetrahydro-2,9,10a-triaza-cyclopenta[b]fluorene-1,3-dione], the concentration for a half-maximal effect (EC50) is 39.8 to 251 nM.

The values above are taken from US8530493B2, “Indolopyridines as Eg5 kinesin modulators” (4SC AG, priority 2006, dated 2013).
